Reference: patent publication US5658880A, “Sialic acid/fucose based medicaments” (Glycomed Incorporated, priority 1994, dated 1997)

Tests used:
human neutrophils = assay: Reperfusion injury assay: complement-induced human neutrophil adhesion in rabbit isolated heart; parameters: species or system human neutrophils; New Zealand White rabbit heart; settings: 4% normal human plasma, 0.1 mg/ml (0.001, 0.01 and 0.1 mg/ml tested), read-out: % Neutrophil Inhibition (neutrophil accumulation)
From the text: Experiments were done to determine the effectiveness of compound 7 in decreasing adhesion of human neutrophils in the rabbit isolated heart. Addition of the human plasma to the rabbit isolated heart results in activation of the complement components found within the plasma, which in turn promotes an increase in the neutrophil accumulation. This model is used to determine the effect of sLe^x analogues on inhibiting complement-induced neutrophil adhesion. Hearts from New Zealand White rabbits were excised, mounted on a modified Langendorff apparatus and perfused with Krebs-Heinseleit buffer. Cardiac functional parameters were monitored upon a Grass Model 79D polygraph machine. 4% normal human plasma (NHP) was added to the recirculating buffer. Ten minutes after the addition of the plasma, 13b (0.1 mg/ml) was added to the perfusate. After 15 minutes of perfusion with the plasma, 51-chromium labelled human neutrophils (1×10^5 /ml) were added to the perfusate and allowed to recirculate for an additional 15 minutes. At the end of this time the hearts were washed with fresh buffer to remove non-specifically bound neutrophils, dried and counted in a well type gamma-counter. A concentration response curve was generated using concentrations of 0.001, 0.01 and 0.1 mg/ml. […] Table 3 lists the results, expressed as the percent inhibition of neutrophil accumulation.

E-selectin = assay: ELISA: inhibition of E-selectin-IgG chimera binding to 2,3 sLe^x glycolipid; parameters: species or system human
From the text: (§1) An ELISA assay is preferably used that employs recombinant fusion proteins composed of extracellular portions of the human selectins joined to human immunoglobulin heavy chain CH3, CH2, and hinge regions. See, for example, Walz et al., Science (1990) 250:1132; Aruffo et al., Cell (1991) 67:35; Aruffo et al., Proc. Natl. Acad. Sci. USA. (1992) 89:2292. The assay is well known in the art, and generally consists of the following three steps:
I. 2,3 sLe^x glycolipid (25 picomole/well) was transferred into microtiter wells as solutions and then evaporated off. Excess, which remained unattached, was washed off with water. The wells were then blocked with 5% BSA at room temperature for an hour and then washed with PBS containing 1 mM calcium.
II. Preparation of "multivalent" receptor of the Selectin-lgG chimera was carried out by combining the respective chimera (1 μg/mL) with biotin labelled goat F(ab')2 anti-human IgG (Fc specific) and streptavidin-alkaline phosphatase diluted 1:1000 in 1% BSA-PBS (1 mM calcium) and incubating at 37° C. for 15 min. This allowed the soluble multivalent receptor complex to form. III. Potential inhibitors such as the compounds of formula I or II were allowed to react with the soluble receptor at 37° C. for 45 min. This test assumes that optimal binding, between the soluble phase receptor complex and the inhibitor (non natural ligand), would have occurred within this time frame. This solution was then placed in the microtiter wells that were prepared in step I. The plate was incubated at 37° C. for 45 minutes to allow the soluble receptor to bind to its natural ligand. In the presence of a strong inhibitor only a few receptors should be free to bind to the microtiter plate coated with the natural ligand.
The positive control is the signal produced by the soluble receptor when it is allowed to react with 2,3 sLe^x glycolipid in the microtiter wells in the absence of any inhibitor. This positive control was considered 100% binding. The signal produced by the receptor that had been previously treated with an inhibitor (recorded as O.D.), was divided by the signal produced by the positive control and multiplied by 100 to calculate the % receptor bound to the well in the presence of the inhibitor. The reciprocal of this number is the % inhibition.
as §1, with “was employed” for “is preferably used”, “uses” for “employs”, “USA” for “USA.”
II. Preparation of "multivalent" receptor of the Selectin-IgG chimera was carried out by combining the respective chimera 1 μg/ml) with biotin labelled goat F(ab')2 anti-human IgG (Fc specific) and streptavidin-alkaline phosphatase diluted 1:1000 in 1% BSA-PBS (1 mM calcium) and incubating at 37° C. for 15 min. This allowed the soluble multivalent receptor complex to form.
III. Potential inhibitors such as compounds of formula I or II were allowed to react with the soluble receptor at 37° C. for 45 min. This test assumes that optimal binding, between the soluble phase receptor complex and the inhibitor (non natural ligand), would have occurred within this time frame. This solution was then placed in the microtiter wells that were prepared in step I. The plate was incubated at 37° C. for 45 minutes to allow the soluble receptor to bind to its natural ligand. In the presence of a strong inhibitor only a few receptors should be free to bind to the microtiter plate coated with the natural ligand.
The positive control is the signal produced by the soluble receptor when it is allowed to react with 2,3 sLe^x glycolipid in the microtiter wells in the absence of any inhibitor. This was considered 100% binding. […]

[1] = test system: neutrophil migration into the peritoneum; assay: Murine thioglycollate induced peritonitis: neutrophil migration to the peritoneal cavity; assay type: in vivo, mouse (Swiss Webster)
From the text: The efficaciousness of 7 and 10 was shown using a murine thioglycollate induced peritonitis model. The assay materials and methods are known in the art, or are generally described by Lewinsohn, D. et al., J. Immun., 138:4313-4321 (1987), or Watson, S. et al., Nature 349:164-166 (1991). This assay measures the ability of the compounds to inhibit neutrophil migration to the peritoneal cavity, the migration being initiated by the presence of thioglycollate in the peritoneal cavity. Thioglycollate is a known and effective inflammatory agent that causes neutrophil migration into the mouse peritoneum when it is administered intraperitoneally. Lewinsohn, D. et al., J. Immun. (1987) 138:4313-4321. Briefly, female Swiss Webster mice weighing about 25 grams were injected in the tail vein with 200 μl of phosphate buffered saline (PBS) with or without the appropriate compound. The pH of the solutions was adjusted to neutrality by the addition of either NaOH or HCL and sterilized by filtration through a 0.2 μ filter. Immediately following injection with the appropriate compound or PBS, the mice were injected intraperitoneally with 1 ml of thioglycollate medium prepared as described by the manufacturer, BBL. Three hours following injection of the thioglycollate solution the mice were sacrificed by CO2 asphyxiation, and the number of cells in the peritoneum removed by lavage with 5 ml of heparinized (5 U/ml) 0.9% sodium chloride solution containing 0.1% bovine serum albumin. Cell number was determined using a Coulter Counter. The cells were prepared for counting by diluting the lavage fluid with 1:50 of a commercial physiological isotonic solution, Isoton II, and the cells lysed by adding S/P Lysing and Hemoglobin Reagent (1:100 final dilution). Cell nuclei were counted in a sized window with lower and upper limits set at 3.9 and 5.7 μm, respectively.

`CC(=O)NC1C(O)CC(OCCCCCCOC2OC(C)C(O)C(O)C2O)(C(=O)O)OC1C(O)C(O)CO` [Compound 7, 1-O-α-Neu5Ac-(6-O-α-L-Fucopyranosyl)-Hexane] was tested, and the inhibition at 100 µg/mL (human neutrophils) was 30%, the “inhibition of E-selectin binding to 2,3 sLe^x glycolipid” value (E-selectin; FIG. 4, result in words) was “inhibit E-selectin binding to 2,3 sLe^x glycolipid” and the IC50 (E-selectin; inhibition of binding to 2,3 sLex glycolipid) was > 4 mM. The “inhibited more neutrophil migration than 10” value ([1]; 7 compared with 10, FIG. 7) was “about 30%” and the “inhibit neutrophil migration into the peritoneum” value ([1]; mice, tail vein injection, 3 h after thioglycollate, FIG. 7(a) and (b)) was “inhibit neutrophil migration into the peritoneum”.
